Data: patent US20260226493A1, “HERBICIDE RESISTANT PLANTS” (SYNGENTA CROP PROTECTION AG, priority 2023, published 2026)

Experiments:
Assay in all cases: BIO3-BIO1 mutant enzyme activity in the presence of herbicide, percentage inhibition (fluorometric DAPA assay)
Assay type in all cases: biochemical
Settings in all cases: read-out: percentage inhibition
[1] = target: T1, Arabidopsis thaliana BIO3-BIO1 (BioDA) mutants (Arabidopsis thaliana, UniProt B0F481, Q517H)
T1 construct: with the predicted N-terminal mitochondrial transit peptide removed; 6xHis-tag (N); thrombin cleavage site (N); made in house; host or cells: E. coli BL21 (DE3) bioA
T1 sequence (B0F481 23-833 Q517H): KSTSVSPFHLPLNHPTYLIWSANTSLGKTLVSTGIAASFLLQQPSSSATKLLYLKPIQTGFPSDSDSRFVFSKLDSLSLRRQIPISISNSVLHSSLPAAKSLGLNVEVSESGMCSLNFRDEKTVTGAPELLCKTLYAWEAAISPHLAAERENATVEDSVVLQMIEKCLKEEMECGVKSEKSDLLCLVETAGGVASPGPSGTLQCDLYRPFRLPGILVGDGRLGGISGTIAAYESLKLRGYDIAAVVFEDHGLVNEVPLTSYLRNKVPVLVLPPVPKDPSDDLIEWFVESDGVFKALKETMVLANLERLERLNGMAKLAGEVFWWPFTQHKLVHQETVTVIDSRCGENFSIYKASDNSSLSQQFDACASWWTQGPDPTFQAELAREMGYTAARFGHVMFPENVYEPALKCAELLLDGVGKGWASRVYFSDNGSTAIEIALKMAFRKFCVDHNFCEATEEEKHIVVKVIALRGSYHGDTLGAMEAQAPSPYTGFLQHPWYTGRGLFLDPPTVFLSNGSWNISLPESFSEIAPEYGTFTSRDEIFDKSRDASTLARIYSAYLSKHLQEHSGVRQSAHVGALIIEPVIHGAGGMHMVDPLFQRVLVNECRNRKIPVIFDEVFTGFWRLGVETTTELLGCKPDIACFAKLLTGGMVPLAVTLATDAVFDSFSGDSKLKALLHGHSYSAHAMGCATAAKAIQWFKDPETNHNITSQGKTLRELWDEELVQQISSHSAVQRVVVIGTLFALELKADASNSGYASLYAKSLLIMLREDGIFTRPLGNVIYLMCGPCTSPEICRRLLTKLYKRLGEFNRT
Outline: (§1)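 Percentage inhibition compares activity at one of three herbicide concentrations against DMSO, from o-phthalaldehyde-derivatised DAPA fluorescence (ex 410, em 470 nm). Purified N-His BIO3-BIO1 variants (50 nM, E. coli-expressed) saw herbicide 10 min at 20 °C in pH 8.6 EPPS buffer, then 20 μM KAPA plus 100 μM spermidine for 75 min at 20 °C.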

[2] = target: T2, Arabidopsis thaliana BIO3-BIO1 (BioDA) mutants (Arabidopsis thaliana, UniProt B0F481, P510A)
T2 construct: with the predicted N-terminal mitochondrial transit peptide removed; 6xHis-tag (N); thrombin cleavage site (N); made in house; host or cells: E. coli BL21 (DE3) bioA
T2 sequence (B0F481 23-833 P510A): as the sequence (B0F481 23-833 Q517H) above, with P488A, H495Q counted along it
Outline: as §1

[3] = target: T3, Arabidopsis thaliana BIO3-BIO1 (BioDA) mutants (Arabidopsis thaliana, UniProt B0F481, F348A)
T3 construct: with the predicted N-terminal mitochondrial transit peptide removed; 6xHis-tag (N); thrombin cleavage site (N); made in house; host or cells: E. coli BL21 (DE3) bioA
T3 sequence (B0F481 23-833 F348A): as the sequence (B0F481 23-833 Q517H) above, with F326A, H495Q counted along it
Outline: as §1

[4] = target: T4, Arabidopsis thaliana BIO3-BIO1 (BioDA) mutants (Arabidopsis thaliana, UniProt B0F481, F348S)
T4 construct: with the predicted N-terminal mitochondrial transit peptide removed; 6xHis-tag (N); thrombin cleavage site (N); made in house; host or cells: E. coli BL21 (DE3) bioA
T4 sequence (B0F481 23-833 F348S): as the sequence (B0F481 23-833 Q517H) above, with F326S, H495Q counted along it
Outline: as §1

[5] = target: T5, Arabidopsis thaliana BIO3-BIO1 (BioDA) mutants (Arabidopsis thaliana, UniProt B0F481, F348D)
T5 construct: with the predicted N-terminal mitochondrial transit peptide removed; 6xHis-tag (N); thrombin cleavage site (N); made in house; host or cells: E. coli BL21 (DE3) bioA
T5 sequence (B0F481 23-833 F348D): as the sequence (B0F481 23-833 Q517H) above, with F326D, H495Q counted along it
Outline: as §1

[6] = target: T6, Arabidopsis thaliana BIO3-BIO1 (BioDA) mutants (Arabidopsis thaliana, UniProt B0F481, Y511R)
T6 construct: with the predicted N-terminal mitochondrial transit peptide removed; 6xHis-tag (N); thrombin cleavage site (N); made in house; host or cells: E. coli BL21 (DE3) bioA
T6 sequence (B0F481 23-833 Y511R): as the sequence (B0F481 23-833 Q517H) above, with Y489R, H495Q counted along it
Outline: as §1

[7] = target: T7, Arabidopsis thaliana BIO3-BIO1 (BioDA) mutants (Arabidopsis thaliana, UniProt B0F481, P421W)
T7 construct: with the predicted N-terminal mitochondrial transit peptide removed; 6xHis-tag (N); thrombin cleavage site (N); made in house; host or cells: E. coli BL21 (DE3) bioA
T7 sequence (B0F481 23-833 P421W): as the sequence (B0F481 23-833 Q517H) above, with P399W, H495Q counted along it
Outline: as §1

[8] = target: T8, Arabidopsis thaliana BIO3-BIO1 (BioDA) mutants (Arabidopsis thaliana, UniProt B0F481, T512C)
T8 construct: with the predicted N-terminal mitochondrial transit peptide removed; 6xHis-tag (N); thrombin cleavage site (N); made in house; host or cells: E. coli BL21 (DE3) bioA
T8 sequence (B0F481 23-833 T512C): as the sequence (B0F481 23-833 Q517H) above, with T490C, H495Q counted along it
Outline: as §1

[9] = target: T9, Arabidopsis thaliana BIO3-BIO1 (BioDA) mutants (Arabidopsis thaliana, UniProt B0F481, A609K)
T9 construct: with the predicted N-terminal mitochondrial transit peptide removed; 6xHis-tag (N); thrombin cleavage site (N); made in house; host or cells: E. coli BL21 (DE3) bioA
T9 sequence (B0F481 23-833 A609K): as the sequence (B0F481 23-833 Q517H) above, with H495Q, A587K counted along it
Outline: as §1

[10] = target: T10, Arabidopsis thaliana BIO3-BIO1 (BioDA) mutants (Arabidopsis thaliana, UniProt B0F481, Q517Y)
T10 construct: with the predicted N-terminal mitochondrial transit peptide removed; 6xHis-tag (N); thrombin cleavage site (N); made in house; host or cells: E. coli BL21 (DE3) bioA
T10 sequence (B0F481 23-833 Q517Y): as the sequence (B0F481 23-833 Q517H) above, with H495Y counted along it
Outline: as §1

[11] = target: T11, Arabidopsis thaliana BIO3-BIO1 (BioDA) mutants (Arabidopsis thaliana, UniProt B0F481, P347A)
T11 construct: with the predicted N-terminal mitochondrial transit peptide removed; 6xHis-tag (N); thrombin cleavage site (N); made in house; host or cells: E. coli BL21 (DE3) bioA
T11 sequence (B0F481 23-833 P347A): as the sequence (B0F481 23-833 Q517H) above, with P325A, H495Q counted along it
Outline: as §1

[12] = target: T12, Arabidopsis thaliana BIO3-BIO1 (BioDA) mutants (Arabidopsis thaliana, UniProt B0F481, T512R)
T12 construct: with the predicted N-terminal mitochondrial transit peptide removed; 6xHis-tag (N); thrombin cleavage site (N); made in house; host or cells: E. coli BL21 (DE3) bioA
T12 sequence (B0F481 23-833 T512R): as the sequence (B0F481 23-833 Q517H) above, with T490R, H495Q counted along it
Outline: as §1

CCOC(=O)c1nn(-c2ccc3c(c2)OC(F)(F)C(F)(F)O3)c2cccc(C(C)=O)c2c1=O [Compound A, ethyl 5-acetyl-4-oxo-1-(2,2,3,3-tetrafluoro-1,4-benzodioxin-6-yl)cinnoline-3-carboxylate]
inhibition at 1 µM [1]: 0% | inhibition at 1 µM [2]: 4% | inhibition at 1 µM [3]: 4% | inhibition at 1 µM [4]: 3% | inhibition at 1 µM [5]: 0% | inhibition at 1 µM [6]: 46% | inhibition at 1 µM [7]: 21% | inhibition at 1 µM [8]: 50% | inhibition at 1 µM [9]: 18% | inhibition at 1 µM [10]: 52% | inhibition at 1 µM [11]: 20% | inhibition at 1 µM [12]: 82%

CCn1c(-c2ccc(Cl)c(Cl)c2)c(C(=O)O)c(=O)c2cc(F)ccc21 [Compound M, 2-(3,4-dichlorophenyl)-1-ethyl-6-fluoro-4-oxo-quinoline-3-carboxylic acid]
inhibition at 0.2 µM [1]: 6% | inhibition at 1 µM [1]: 37% | inhibition at 5 µM [1]: 71% | inhibition at 0.2 µM [2]: 0% | inhibition at 1 µM [2]: 14% | inhibition at 5 µM [2]: 51% | inhibition at 0.2 µM [3]: 0% | inhibition at 1 µM [3]: 0% | inhibition at 5 µM [3]: 6% | inhibition at 0.2 µM [4]: 6% | inhibition at 1 µM [4]: 4% | inhibition at 5 µM [4]: 25% | inhibition at 0.2 µM [5]: 0% | inhibition at 1 µM [5]: 2% | inhibition at 5 µM [5]: 0% | inhibition at 0.2 µM [6]: 74% | inhibition at 1 µM [6]: 96% | inhibition at 5 µM [6]: 99% | inhibition at 0.2 µM [7]: 0% | inhibition at 1 µM [7]: 0% | inhibition at 5 µM [7]: 18% | inhibition at 0.2 µM [8]: 27% | inhibition at 1 µM [8]: 79% | inhibition at 5 µM [8]: 95% | inhibition at 0.2 µM [9]: 0% | inhibition at 1 µM [9]: 78% | inhibition at 5 µM [9]: 92% | inhibition at 0.2 µM [10]: 36% | inhibition at 1 µM [10]: 71% | inhibition at 5 µM [10]: 90% | inhibition at 0.2 µM [11]: 8% | inhibition at 1 µM [11]: 26% | inhibition at 5 µM [11]: 52% | inhibition at 0.2 µM [12]: 81% | inhibition at 1 µM [12]: 95% | inhibition at 5 µM [12]: 99%

CCn1c(Cn2ccc(C(F)(F)F)n2)cc(=O)c(C(=O)O)c1-c1ccc(Cl)c(Cl)c1 [Compound L, 2-(3,4-dichlorophenyl)-1-ethyl-4-oxo-6-[[3-(trifluoromethyl)pyrazol-1-yl]methyl]pyridine-3-carboxylic acid]
inhibition at 0.01 µM [2]: 0% | inhibition at 0.075 µM [2]: 0% | inhibition at 0.5 µM [2]: 63% | inhibition at 0.01 µM [3]: 1% | inhibition at 0.075 µM [3]: 0% | inhibition at 0.5 µM [3]: 3% | inhibition at 0.01 µM [4]: 7% | inhibition at 0.075 µM [4]: 3% | inhibition at 0.5 µM [4]: 32% | inhibition at 0.01 µM [5]: 0% | inhibition at 0.075 µM [5]: 1% | inhibition at 0.5 µM [5]: 2% | inhibition at 0.01 µM [7]: 0% | inhibition at 0.075 µM [7]: 8% | inhibition at 0.5 µM [7]: 27% | inhibition at 0.01 µM [9]: 36% | inhibition at 0.075 µM [9]: 52% | inhibition at 0.5 µM [9]: 64% | inhibition at 0.01 µM [11]: 8% | inhibition at 0.075 µM [11]: 23% | inhibition at 0.5 µM [11]: 47%

CCn1c(C)c(-c2ccc(F)cc2F)c(=O)c(C(=O)O)c1-c1ccc(Cl)c(Cl)c1 [Compound C, 2-(3,4-dichlorophenyl)-5-(2,4-difluorophenyl)-1-ethyl-6-methyl-4-oxo-pyridine-3-carboxylic acid]
inhibition at 0.2 µM [1]: 11% | inhibition at 1 µM [1]: 44% | inhibition at 5 µM [1]: 77% | inhibition at 0.2 µM [2]: 0% | inhibition at 1 µM [2]: 28% | inhibition at 5 µM [2]: 70% | inhibition at 0.2 µM [3]: 7% | inhibition at 1 µM [3]: 0% | inhibition at 5 µM [3]: 1% | inhibition at 0.2 µM [4]: 9% | inhibition at 1 µM [4]: 7% | inhibition at 5 µM [4]: 22% | inhibition at 0.2 µM [5]: 8% | inhibition at 1 µM [5]: 13% | inhibition at 5 µM [5]: 0% | inhibition at 0.2 µM [6]: 80% | inhibition at 1 µM [6]: 99% | inhibition at 5 µM [6]: 99% | inhibition at 0.2 µM [7]: 0% | inhibition at 1 µM [7]: 15% | inhibition at 5 µM [7]: 37% | inhibition at 0.2 µM [8]: 22% | inhibition at 1 µM [8]: 83% | inhibition at 5 µM [8]: 97% | inhibition at 0.2 µM [9]: 65% | inhibition at 1 µM [9]: 80% | inhibition at 5 µM [9]: 87% | inhibition at 0.2 µM [10]: 49% | inhibition at 1 µM [10]: 86% | inhibition at 5 µM [10]: 97% | inhibition at 0.2 µM [11]: 3% | inhibition at 1 µM [11]: 27% | inhibition at 5 µM [11]: 51% | inhibition at 0.2 µM [12]: 74% | inhibition at 1 µM [12]: 95% | inhibition at 5 µM [12]: 99%
